Measurements from publication PMC10764907, “Aryl-quinoline-4-carbonyl hydrazone bearing different 2-methoxyphenoxyacetamides as potent α-glucosidase inhibitors; molecular dynamics, kinetic and structure–activity relationship studies” (Scientific Reports, 2024).
Like-named read-outs stand apart in the source and are kept apart here.

What was measured:
α-glucosidase [1] = target: T1, α-glucosidase (Saccharomyces cerevisiae, UniProt P53341); assay: biochemical; assay type: biochemical; details: for IC50: α-glucosidase inhibition, mean ± SD
T1 sequence (P53341 whole entry): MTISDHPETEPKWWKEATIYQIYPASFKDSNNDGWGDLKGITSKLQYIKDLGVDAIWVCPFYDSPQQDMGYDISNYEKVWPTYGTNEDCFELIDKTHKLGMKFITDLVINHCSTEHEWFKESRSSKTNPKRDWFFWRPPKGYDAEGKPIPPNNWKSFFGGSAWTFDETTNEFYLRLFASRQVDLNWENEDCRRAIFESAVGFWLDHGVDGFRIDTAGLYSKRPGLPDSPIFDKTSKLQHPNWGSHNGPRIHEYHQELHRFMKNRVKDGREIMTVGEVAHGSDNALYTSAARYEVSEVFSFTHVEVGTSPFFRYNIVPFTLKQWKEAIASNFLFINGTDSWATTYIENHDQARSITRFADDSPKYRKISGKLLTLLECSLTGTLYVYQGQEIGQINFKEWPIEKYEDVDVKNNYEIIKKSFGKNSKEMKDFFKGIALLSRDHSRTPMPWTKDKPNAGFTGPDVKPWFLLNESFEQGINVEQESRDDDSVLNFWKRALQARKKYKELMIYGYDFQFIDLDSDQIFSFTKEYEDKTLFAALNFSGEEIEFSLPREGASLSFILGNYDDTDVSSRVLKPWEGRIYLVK

[2] = Concentrations of precipitation in the α-glucosidase inhibition assay; assay type: physicochemical
Source text: Table 1 The α-glucosidase inhibition assay of 11a–o. | column: Concentrations of precipitation (µM)

α-glucosidase [3] = target: T1, α-glucosidase; assay: Enzyme kinetic studies (Lineweaver–Burk plot, secondary plot); assay type: biochemical
Source text: This pattern indicates a competitive inhibition mechanism. […] Additionally, by plotting the Km values against different inhibitor concentrations, an estimation of the inhibition constant (Ki) was obtained.

α-glucosidase [4] = target: T1, α-glucosidase; details: cited from earlier work; for IC50: Fig. 1
α-amylase = tested on: α-amylase; parameters: method as in doi:10.1016/j.molstruc.2022.133650; details: at 108 μM; cited from earlier work
[5] = previously reported quinoline inhibitors

IC50 (α-glucosidase [1])	melting point	Concentrations of precipitation [2]	SMILES	also measured
34.8 ± 1.1 µM	> 250 °C	–	COc1cc(C=NNC(=O)c2cc(-c3ccccc3)nc3ccccc23)ccc1OCC(=O)Nc1ccccc1C [11a, 2-(2-methoxy-4-((2-(2-phenylquinoline-4-carbonyl)hydrazineylidene)methyl)phenoxy)-N-(o-tolyl)acetamide]	–
95.2 ± 1.2 µM	> 250 °C	≥ 375 µM	COc1cc(C=NNC(=O)c2cc(-c3ccccc3)nc3ccccc23)ccc1OCC(=O)Nc1ccc(C)cc1 [11b, 2-(2-methoxy-4-((2-(2-phenylquinoline-4-carbonyl)hydrazono)methyl)phenoxy)-N-(p-tolyl)acetamide]	–
43.7 ± 1 µM	> 250 °C	–	COc1ccc(NC(=O)COc2ccc(C=NNC(=O)c3cc(-c4ccccc4)nc4ccccc34)cc2OC)cc1 [11c, 2-(2-methoxy-4-((2-(2-phenylquinoline-4-carbonyl)hydrazineylidene)methyl)phenoxy)-N-(4-methoxyphenyl)acetamide]	–
156.8 ± 1.5 µM	> 250 °C	≥ 375 µM	CCc1ccc(NC(=O)COc2ccc(C=NNC(=O)c3cc(-c4ccccc4)nc4ccccc34)cc2OC)cc1 [11d, N-(4-ethylphenyl)-2-(2-methoxy-4-((2-(2-phenylquinoline-4-carbonyl)hydrazono)methyl)phenoxy)acetamide]	–
52.6 ± 0.6 µM	> 250 °C	–	COc1cc(C=NNC(=O)c2cc(-c3ccccc3)nc3ccccc23)ccc1OCC(=O)Nc1ccc(F)cc1 [11e, N-(4-fluorophenyl)-2-(2-methoxy-4-((2-(2-phenylquinoline-4-carbonyl)hydrazono)methyl)phenoxy)acetamide]	–
> 750 µM	> 250 °C	≥ 375 µM	COc1cc(C=NNC(=O)c2cc(-c3ccccc3)nc3ccccc23)ccc1OCC(=O)Nc1ccc(Cl)cc1 [11f, N-(4-chlorophenyl)-2-(2-methoxy-4-((2-(2-phenylquinoline-4-carbonyl)hydrazono)methyl)phenoxy)acetamide]	–
180.9 ± 1.7 µM	> 250 °C	≥ 375 µM	COc1cc(C=NNC(=O)c2cc(-c3ccccc3)nc3ccccc23)ccc1OCC(=O)Nc1ccc(Br)cc1 [11g, N-(4-bromophenyl)-2-(2-methoxy-4-((2-(2-phenylquinoline-4-carbonyl)hydrazineylidene)methyl)phenoxy)acetamide]	–
71.2 ± 0.6 µM	> 250 °C	–	COc1ccc(-c2cc(C(=O)NN=Cc3ccc(OCC(=O)Nc4ccccc4C)c(OC)c3)c3ccccc3n2)cc1 [11i, 2-(2-methoxy-4-((2-(2-(4-methoxyphenyl)quinoline-4-carbonyl)hydrazono)methyl)phenoxy)-N-(o-tolyl)acetamide]	–
61.8 ± 0.5 µM	> 250 °C	≥ 190 µM	COc1ccc(NC(=O)COc2ccc(C=NNC(=O)c3cc(-c4ccc(OC)cc4)nc4ccccc34)cc2OC)cc1 [11j, 2-(2-methoxy-4-((2-(2-(4-methoxyphenyl)quinoline-4-carbonyl)hydrazono)methyl)phenoxy)-N-(4-methoxyphenyl)acetamide]	–
> 750 µM	> 250 °C	≥ 190 µM	COc1ccc(-c2cc(C(=O)NN=Cc3ccc(OCC(=O)Nc4ccc(F)cc4)c(OC)c3)c3ccccc3n2)cc1 [11l, N-(4-fluorophenyl)-2-(2-methoxy-4-((2-(2-(4-methoxyphenyl)quinoline-4-carbonyl)hydrazono)methyl)phenoxy)acetamide]	–
152 ± 1.7 µM	> 250 °C	≥ 190 µM	COc1ccc(-c2cc(C(=O)NN=Cc3ccc(OCC(=O)Nc4ccc(Br)cc4)c(OC)c3)c3ccccc3n2)cc1 [11m, N-(4-bromophenyl)-2-(2-methoxy-4-((2-(2-(4-methoxyphenyl)quinoline-4-carbonyl)hydrazono)methyl)phenoxy)acetamide]	–
48.7 ± 0.9 µM	> 250 °C	≥ 190 µM	COc1ccc(-c2cc(C(=O)NN=Cc3ccc(OCC(=O)Nc4ccc(Cl)cc4)c(OC)c3)c3ccccc3n2)cc1 [11n, N-(4-chlorophenyl)-2-(2-methoxy-4-((2-(2-(4-methoxyphenyl)quinoline-4-carbonyl)hydrazono)methyl)phenoxy)acetamide]	–
459.8 ± 1.5 µM	> 250 °C	–	COc1ccc(-c2cc(C(=O)NN=Cc3ccc(OCC(=O)Nc4ccc([N+](=O)[O-])cc4)c(OC)c3)c3ccccc3n2)cc1 [11o, 2-(2-methoxy-4-((2-(2-(4-methoxyphenyl)quinoline-4-carbonyl)hydrazono)methyl)phenoxy)-N-(4-nitrophenyl)acetamide]	–

The next lines start with the compound.

SMILES	IC50 (α-glucosidase [1])	melting point	Concentrations of precipitation [2]	also measured
COc1ccc(-c2cc(C(=O)NN=Cc3ccc(OCC(=O)Nc4ccccc4)c(OC)c3)c3ccccc3n2)cc1 [11h, 2-(2-methoxy-4-((2-(2-(4-methoxyphenyl)quinoline-4-carbonyl)hydrazono)methyl)phenoxy)-N-phenylacetamide]	62.4 ± 0.9 µM	> 250 °C	≥ 375 µM	fold more potent vs positive control (α-glucosidase [1]; vs acarbose): more than 11 fold
CCc1ccc(NC(=O)COc2ccc(C=NNC(=O)c3cc(-c4ccc(OC)cc4)nc4ccccc34)cc2OC)cc1 [11k, N-(4-ethylphenyl)-2-(2-methoxy-4-((2-(2-(4-methoxyphenyl)quinoline-4-carbonyl)hydrazono)methyl)phenoxy)acetamide]	26 ± 0.8 µM	> 250 °C	–	Ki (α-glucosidase [3]): 25.6 µM; mode of inhibition (α-glucosidase [3]; Lineweaver–Burk plot): competitive
O=C(O)c1ccc2ccccc2n1 [A]	–	–	–	IC50 (α-glucosidase [4]; [5]): 9.1 µM
O=C(O)c1cnc2ccccc2c1 [B]	–	–	–	IC50 (α-glucosidase [4]; [5]): 10.6 µM
O=C(CSc1nc2ccccc2cc1-c1nc2ccccc2[nH]1)Nc1ccc2ccccc2c1 [C]	–	–	–	IC50 (α-glucosidase [4]): 3.2 µM
O=C(NCCCC1OC(CO)C(O)C(O)C1O)c1cc(-c2ccccc2)nc2ccccc12 (centres unmarked) [D]	–	–	–	IC50 (α-glucosidase [4]): 7.98 µM
O=C(N/N=C/c1cccc(F)c1)c1ccc2nc(-c3ccccc3)c(-c3ccccc3)nc2c1 [E]	–	–	–	IC50 (α-glucosidase [4]): 111 µM
COc1ccc(-c2nc3cc(C(=O)N/N=C/c4ccc(O)c(OC)c4)ccc3[nH]2)cc1 [F]	–	–	–	IC50 (α-glucosidase [4]): 60.1 µM
COc1cc(/C=N/NC(=O)CC#N)ccc1OCc1cn(Cc2ccc(Cl)cc2)nn1 [G]	–	–	–	IC50 (α-glucosidase [4]): 1 µM
CCc1ccc(NC(=O)Cn2cc(COc3ccc(-c4nc5ccccc5[nH]4)cc3)nn2)cc1 [H]	–	–	–	Ki (α-glucosidase [4]): 23 µM; mode of inhibition (α-glucosidase [4]): competitive
COc1cc(-c2nc3ccccc3[nH]2)ccc1OCC(=O)Nc1ccc(F)cc1 [I]	–	–	–	IC50 (α-glucosidase [4]): 99.6 µM; Ki (α-glucosidase [4]): 67 µM; mode of inhibition (α-glucosidase [4]): competitive; α-amylase inhibition (α-amylase): 45.0 ± 0.8%
COc1cc(-c2nc3ccccc3c(=O)[nH]2)ccc1OCC(=O)Nc1ccccc1F [J]	–	–	–	IC50 (α-glucosidase [4]): 14.4 µM
